Data set [1] concerns the target T1, Oxysterols receptor LXR-alpha (Homo sapiens, UniProt Q13133).
T1 sequence (Q13133 whole entry): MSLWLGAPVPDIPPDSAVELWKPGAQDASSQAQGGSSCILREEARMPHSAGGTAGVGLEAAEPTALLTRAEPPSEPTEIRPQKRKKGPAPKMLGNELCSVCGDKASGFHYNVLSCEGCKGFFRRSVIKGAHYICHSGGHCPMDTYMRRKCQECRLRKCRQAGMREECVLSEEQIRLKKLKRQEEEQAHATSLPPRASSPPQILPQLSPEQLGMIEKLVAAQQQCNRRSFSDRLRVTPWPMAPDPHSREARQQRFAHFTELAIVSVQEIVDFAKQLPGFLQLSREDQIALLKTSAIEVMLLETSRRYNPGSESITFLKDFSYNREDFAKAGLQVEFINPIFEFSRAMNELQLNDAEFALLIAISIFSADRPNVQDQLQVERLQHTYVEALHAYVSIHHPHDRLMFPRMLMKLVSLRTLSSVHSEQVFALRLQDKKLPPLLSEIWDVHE
The experiment in a line: Displacement of [3H]T0901317 from human LXRalpha ligand binding domain. For orientation: Displacement assays read how much labelled ligand stays bound in the presence of the test substance.

The subject of data set [2] is Mus musculus. In words: Antiatherosclerotic activity against high fat/high cholesterol fed LDLR-deficient mouse assessed as reduction in aortic arch lesion burden at 0.6 mg/kg/day administered with diet relative to control. In kind it is functional, Pharyngeal arch artery. On the set-up: scale not given: the % may be the effect or the level left.
Data set [3] relates to THP-1. In words: Induction of [3H]cholesterol efflux in human THP1 cells assessed as lipid accumulation. In kind it is functional, cell-based.
Data set [4] deals with THP-1. In words: cells. Conditions: Homo sapiens.
Data set [5] addresses T2, Nuclear receptor subfamily 1 group I member 2 (Homo sapiens, UniProt O75469).
T2 sequence (O75469 whole entry): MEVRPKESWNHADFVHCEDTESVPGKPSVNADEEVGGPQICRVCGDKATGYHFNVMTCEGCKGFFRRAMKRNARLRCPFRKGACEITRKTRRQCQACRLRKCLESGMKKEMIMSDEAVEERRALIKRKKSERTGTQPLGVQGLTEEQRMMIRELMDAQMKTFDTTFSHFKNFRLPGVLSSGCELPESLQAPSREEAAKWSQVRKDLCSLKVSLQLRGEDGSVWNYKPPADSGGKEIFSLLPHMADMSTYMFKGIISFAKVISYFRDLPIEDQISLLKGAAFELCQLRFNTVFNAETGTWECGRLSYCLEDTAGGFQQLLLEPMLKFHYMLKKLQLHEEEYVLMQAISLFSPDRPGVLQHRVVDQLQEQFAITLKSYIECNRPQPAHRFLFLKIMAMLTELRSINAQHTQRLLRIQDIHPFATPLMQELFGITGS
The experiment in a line: Binding affinity to PXR.

A short description of data set [6]: AUC (0 to infinity) in C57 mouse at 10 mg/kg, po. In kind it is ADME, organism-based. On the set-up: time infinity, dose 10 mg/kg, route oral. Conditions: plasma.
A short description of data set [7]: Plasma concentration in high fat/high cholesterol fed LDLR-deficient mouse administered with diet for 8 weeks measured after 3 hrs of last dose. In kind it is ADME, organism-based. The note with it: po.
Data set [8] has as its system Mus musculus. In words: Antiatherosclerotic activity against high fat/high cholesterol fed LDLR-deficient mouse assessed as IPl gene regulation at 3 mg/kg administered with diet for 7 days by Experion chip analysis. The data set is classed as functional, organism-based. Also noted: dose 3 mg/kg.

Structures are written as SMILES. The source made the active and inactive calls. No cut-off for these calls is given here.

The text below walks through data of ChEMBL document CHEMBL1156230, “Identification of phenylsulfone-substituted quinoxaline (WYE-672) as a tissue selective liver X-receptor (LXR) agonist” (J Med Chem, 2010).

On to `Cc1nc2c(C(F)(F)F)cccc2nc1-c1ccc(-c2cccc(S(C)(=O)=O)c2)cc1`, for which, in data set [1], the IC50 (in general, the concentration at which inhibition is half-maximal) was > 1000 nM. Also, the Activity in the data set on Mus musculus [2] is 20%; in data set [5], “Not Active”. In addition, the figures for the EC50 in the data set with THP-1 [3] and with THP-1 [4] were 72 nM and 1090 nM, respectively. For the same compound, the AUC(0-inf) (in general, the area under the concentration-time curve extrapolated to infinity) in data set [6] came to 2440 ng·h/mL.
In data set [7], `O=C(O)Cc1cccc(OCCCN(Cc2cccc(C(F)(F)F)c2Cl)CC(c2ccccc2)c2ccccc2)c1` came in with a concentration at 3 h of 175 ng/mL. Moreover, the outcome with Mus musculus [8] was Active.
